Data: PMC6347603, “N^+-C-H···O Hydrogen bonds in protein-ligand complexes” (Scientific Reports, 2019)

Tests used:
[1] = target: T1, G9a-like protein (GLP) (Homo sapiens, UniProt Q9H9B1); experiment: GLP activity assay (GLP Chemiluminescent Assay Kit); type: biochemical; conditions: for IC50: 2 μM SAM, 40 ng GLP, 120 min, room temperature, mean values of at least three experiments, read-out: In vitro GLP-inhibitory activity IC50
T1 construct: purchased BPS Bioscience, Inc. 53007
T1 sequence (Q9H9B1 1-1298): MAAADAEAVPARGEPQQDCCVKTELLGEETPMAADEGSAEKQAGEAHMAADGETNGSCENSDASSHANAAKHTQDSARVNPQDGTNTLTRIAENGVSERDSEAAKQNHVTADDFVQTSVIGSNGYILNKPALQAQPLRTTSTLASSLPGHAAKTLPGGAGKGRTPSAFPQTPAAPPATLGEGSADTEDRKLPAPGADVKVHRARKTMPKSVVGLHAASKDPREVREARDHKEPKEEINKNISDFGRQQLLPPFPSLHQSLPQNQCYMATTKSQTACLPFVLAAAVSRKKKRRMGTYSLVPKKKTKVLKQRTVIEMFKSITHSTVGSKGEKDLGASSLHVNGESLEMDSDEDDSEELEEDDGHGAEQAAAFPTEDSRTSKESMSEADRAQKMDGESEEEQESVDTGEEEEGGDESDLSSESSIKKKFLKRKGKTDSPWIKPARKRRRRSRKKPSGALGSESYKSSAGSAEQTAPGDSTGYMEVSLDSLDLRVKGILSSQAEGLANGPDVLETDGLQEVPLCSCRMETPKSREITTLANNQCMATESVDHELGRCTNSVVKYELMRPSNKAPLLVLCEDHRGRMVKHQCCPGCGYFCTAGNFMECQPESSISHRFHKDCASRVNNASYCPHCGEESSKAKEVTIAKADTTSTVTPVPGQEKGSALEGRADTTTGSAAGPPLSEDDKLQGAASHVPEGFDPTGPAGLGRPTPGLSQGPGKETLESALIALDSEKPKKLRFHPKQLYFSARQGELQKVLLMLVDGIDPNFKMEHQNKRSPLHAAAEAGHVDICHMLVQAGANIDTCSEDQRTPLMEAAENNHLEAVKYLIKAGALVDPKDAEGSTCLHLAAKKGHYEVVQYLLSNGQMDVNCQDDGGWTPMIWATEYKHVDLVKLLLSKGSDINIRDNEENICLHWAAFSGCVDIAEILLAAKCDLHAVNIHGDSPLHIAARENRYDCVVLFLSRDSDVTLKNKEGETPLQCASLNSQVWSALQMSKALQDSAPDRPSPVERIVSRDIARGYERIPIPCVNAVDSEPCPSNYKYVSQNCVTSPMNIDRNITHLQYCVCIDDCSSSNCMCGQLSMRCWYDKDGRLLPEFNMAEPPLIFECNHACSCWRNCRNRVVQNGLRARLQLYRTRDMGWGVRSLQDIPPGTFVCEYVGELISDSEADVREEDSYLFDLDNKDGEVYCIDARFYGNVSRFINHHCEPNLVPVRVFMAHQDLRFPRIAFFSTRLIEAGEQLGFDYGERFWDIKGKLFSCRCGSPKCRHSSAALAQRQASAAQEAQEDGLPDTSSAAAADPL
Procedure: The GLP activity assay was carried out using a GLP Chemiluminescent Assay Kit (Catalog #53007, BPS Bioscience, Inc.). Microwells were rehydrated by adding 200 μL of tris buffered saline with Tween 20 (TBS-T: 1x TBS, pH = 8.0, containing 0.05% Tween-20) to every well, followed by incubation at room temperature for 45 minutes. After removing TBS-T, the inhibitors were incubated in the presence of 2 μM SAM and 40 ng of GLP in the supplied buffer on the microwells of (120 min, room temperature, total volume: 50 μL). After the enzymatic reaction, every well was washed three times with TBS-T (100 μL) and blocked for 10 min with blocking buffer. Then, 100 μL of primary anti-body solution (1:400 dilution) were added to the microwells, followed by incubation (2 h). The wells were probed with the primary antibody, washed three times with TBS-T (100 μL), incubated (2 h, room temperature) with sheep secondary anti-body (1:1000 diluted), and again washed three times with TBS-T (100 μL). The chemiluminescence of the wells, to which detection reagents were added, was measured on a chemiluminescence reader (ARVO X3 Multilabel Plate Reader), and the values of % inhibition were calculated from the chemiluminescence readings of inhibited wells relative to those of control wells.

[2] = target: T2, GLP recombinant protein (Homo sapiens, UniProt Q9H9B1); experiment: Isothermal titration calorimetry (ITC) of GLP inhibitors binding to GLP; conditions: 25 °C, 20 mM Tris pH 8.0, 150 mM NaCl, 2% DMSO, 50 μM AdoMet; for Kd: 10 μM GLP, 100 μM inhibitor, one-site binding model, read-out: dissociation constant KD (ITC); for −TΔS (ITC): calculated from ΔG = ΔH − TΔS
T2 construct: purchased Active Motif, Inc. 31920
T2 sequence (Q9H9B1 1-1298): T1 sequence (Q9H9B1 1-1298)
Procedure: A GLP recombinant protein solution (Catalog #31920, Active Motif, Inc.) was concentrated by ultrafiltration and the buffer was replaced with test buffer (20 mM Tris pH 8.0, 150 mM NaCl, 2% DMSO and 50 μM AdoMet). ITC measurements of GLP inhibitors binding to the GLP were recorded at 25 °C using a MicroCal PEAQ-ITC microcalorimeter (Malvern Panalytical) in the test buffer. The titrations were performed using 10 μM GLP solution in the sample cell and 100 μM inhibitor solution in the syringe. A typical experiment consisted of 19 injections under the following parameters: one injection of 0.4 μL followed by 18 injections of 2.0 μL; 150 s spacing between injections; 750 rpm stirring speed; and reference power set to 5 μcal s^−1. The heat of dilution of the ligand into the buffer measured independently was essentially similar to the heat signal obtained at the end of the titration; so the signal of the last injection was used as the background heat signal. The experimental data were analyzed using the MicroCal PEAQ-ITC Analysis software (Malvern Panalytical), and fitted using the one-site binding model. Values of ΔG, KD, and −TΔS were calculated using the thermodynamic relationships, ΔG = −RT lnKa, KD = 1/Ka, and ΔG = ΔH − TΔS.
Figure S20. Determination of the disassociation constant and thermodynamic parameters of 14a–14c by isothermal titration calorimetry (ITC). (A–C) The binding of (A) 14a, (B) 14b and (C) 14c to GLP are measured by ITC. The titrations were conducted in buffer containing 20 mM Tris pH 8.0, 150 mM NaCl, 2% DMSO and 50 μM AdoMet. The sample chamber and syringe were filled with 10 μM GLP and 100 μM inhibitor, respectively. (D) Summary of disassociation constant and thermodynamic parameter profiles of 14a–14c.

Row | SMILES | IC50 [1] [nM] | ΔH (ITC) [2] [kcal/mol] | Kd [2] [nM] | −TΔS (ITC) [2] [kcal/mol] | GLP inhibition (result in words) ([1]; up to 3 μM)
1 | CNCCCNc1nc(NC2CCN(Cc3ccccc3)CC2)c2cc(OC)c(OC)cc2n1 [Compound 14b, N^4-(1-Benzylpiperidin-4-yl)-6,7-dimethoxy-N^2-[3-(methylamino)propyl]quinazoline-2,4-diamine] | 664 | -8.58 | 617 | 0.10 | 
2 | COc1cc2nc(NCCCC(C)C)nc(NC3CCN(Cc4ccccc4)CC3)c2cc1OC [Compound 14d] |  |  |  |  | did not show any GLP inhibition
3 | COc1cc2nc(NCCCN(C)C)nc(NC3CCN(Cc4ccccc4)CC3)c2cc1OC [Compound 14a] | 156 | -10.7 | 171 | 1.42 | 
4 | COc1cc2nc(NCCCN)nc(NC3CCN(Cc4ccccc4)CC3)c2cc1OC [Compound 14c] | 1450 | -7.04 | 944 | -1.19 | 
